In brackets after ≈: the same amount, converted by molar mass.
What was measured:
Escherichia coli NIHJ = experiment: MIC against Escherichia coli NIHJ; assay type: cell-based; conditions: Table 1
[1] = test system: Klebsiella pneumoniae IID875; experiment: MIC against Klebsiella pneumoniae IID875; assay type: cell-based; conditions: Table 1
[2] = test system: Haemophilus influenzae IID1638; experiment: MIC against Haemophilus influenzae IID1638; assay type: cell-based; conditions: Table 1
[3] = test system: Serratia marcescens IID620; experiment: MIC against Serratia marcescens IID620; assay type: cell-based; conditions: Table 1
[4] = test system: Staphylococcus aureus 209-P; experiment: MIC against Staphylococcus aureus 209-P; assay type: cell-based; conditions: Table 1
[5] = test system: Morganella morganii IID601; experiment: MIC against Morganella morganii IID601; assay type: cell-based; conditions: Table 1
[6] = Bioavailability by oral administration in mice (urinary excretion); assay type: in vivo; conditions: mouse, urine, 20 mg/kg, CMC-Na suspension; for dose excreted at 6 h: collected during 6 hours, read-out: Recovery in urea
Procedure: Certain representative compounds according to the present invention were each suspended in a CMC-Na solution. The resulting suspension was administered orally to mice at the dosage of 20 mg/kg. Urea excreted during 6 hours after the administration was collected.

[7] = test system: Haemophilus influenzae E35147; experiment: MIC against Haemophilus influenzae E35147; assay type: cell-based; conditions: Table 4
[8] = test system: Haemophilus influenzae E35147; experiment: Treatment of respiratory-infected mice, Haemophilus influenzae E35147; assay type: in vivo, mouse infected with Haemophilus influenzae; conditions: mouse, oral, 40 mg/kg, 1 hour after inoculation of 4.3 × 10^5 CFU/mouse; counted 24 hours after infection; limit 1.48, no colony = 1; control 5.73 ± 0.58
Procedure: (§1) A bacterium-containing solution was inoculated into the nasal cavity of each mouse, followed by the oral administration of a suspension of one of the compounds in a CMC-Na solution one hour later where the bacterium was Haemophilus influenzae but four hours later where the bacterium was Klebsiella pneumoniae. The number of intrapulmonary viable cells of the bacterium was counted upon an elapsed time of 24 hours after the infection. The measurement limit is represented by the following formula. Log CFU/Lung=1.48 wherein CFU is the colony forming unit. When no colony was observed, the bacterium was regarded as having been eradicated and Log CFU/Lung was calculated to be 1.

[9] = test system: Klebsiella pneumonia E02033; experiment: MIC against Klebsiella pneumonia E02033; assay type: cell-based; conditions: Klebsiella pneumoniae, Table 3
[10] = test system: Klebsiella pneumonia E02033; experiment: Treatment of respiratory-infected mice, Klebsiella pneumonia E02033; assay type: in vivo, mouse infected with Klebsiella pneumonia; conditions: mouse, oral, 10 mg/kg; for Intrapulmonary viable cells: 4 hours after inoculation of 1.4 × 10^3 CFU/mouse, counted 24 hours after infection, limit 1.48, no colony = 1, control 7.31 ± 0.73; for Eradication rate: inoculum 1.4 × 10^3 CFU/mouse, 24 hours after infection, control 0
Procedure: as §1

| Molecule | MIC (Escherichia coli NIHJ) [µg/mL] | MIC [1] [µg/mL] | MIC [2] [µg/mL] | MIC [3] [µg/mL] | MIC [4] [µg/mL] | MIC [5] [µg/mL] | bioavailability at 6 h [6] [%] | dose excreted at 6 h [6] [%] | MIC [7] [µg/mL] | Intrapulmonary viable cells [8] [Log CFU/Lung] | further results |
| --- | --- | --- | --- | --- | --- | --- | --- | --- | --- | --- | --- |
| 1-(Isopropoxycarbonyloxy)ethyl 7β-[2-(2-aminothiazol-4-yl)-2-(Z)-acetoxyiminoacetamido]-3-N,N-dimethylcarbamoyloxymethyl-3-cephem-carboxylate hydrochloride [Example 40] | 0.05 | 0.05 | 0.2 | 0.1 | 0.2 | 0.05 |  |  |  |  |  |
| 1-(Isopropoxycarbonyloxy)ethyl 7β-[2-(2-aminothiazol-4-yl)-2-(Z)-hydroxyiminoacetamido]-3-N,N-dimethylcarbamoyloxymethyl-3-cephem-carboxylate hydrochloride [Example 41] | 0.2 | 0.2 | 0.2 | 0.1 | 0.2 | 0.1 |  |  |  |  |  |
| 7-Amino-3-N,N-dimethylcarbamoyloxymethyl-3-cephem-4-carboxylic acid [Example 39] | 0.05 | 0.025 | 0.2 | 0.05 | 0.2 | 0.05 |  |  |  |  |  |
| CC(C)(C)C(=O)OCOC(=O)C1=C(COC(N)=O)CS[C@@H]2C(NC(=O)/C(=N\O)c3csc(N)n3)C(=O)N12 (some centres unmarked) [Compound B, Pivaloyloxymethyl 7-[(Z)-2-(2-aminothiazol-4-yl)-2-hydroxyiminoacetamido]-3-carbamoyloxymethyl-3-cephem-4-carboxylate, reference compound] |  |  |  |  |  |  | 17 | 11 |  |  |  |
| CC(C)OC(=O)OC(C)OC(=O)C1=C(COC(N)=O)CS[C@@H]2C(NC(=O)/C(=N\O)c3csc(N)n3)C(=O)N12 (some centres unmarked) [Compound C, 1-(Isopropyloxycarbonyloxy)ethyl 7-[(Z)-2-(2-aminothiazol-4-yl)-2-hydroxyiminoacetamido]-3-carbamoyloxymethyl-3-cephem-4-carboxylate, reference compound] |  |  |  |  |  |  | 7 | 4.5 | 0.8 (≈ 1.4 µM) | 5.50 ± 0.61 |  |
| CO/N=C(\C(=O)NC1C(=O)N2C(C(=O)OCOC(=O)C(C)(C)C)=C(COC(N)=O)CS[C@H]12)c1csc(N)n1 (some centres unmarked) [Compound D, Pivaloyloxymethyl 7-[(Z)-2-(2-aminothiazol-4-yl)-2-methoxyiminoacetamido]-3-carbamoyloxymethyl-3-cephem-4-carboxylate, reference compound] |  |  |  |  |  |  | 17 | 10.4 |  |  |  |
| COCC1=C(C(=O)OC(C)OC(=O)OC(C)C)N2C(=O)C(NC(=O)/C(=N\OC)c3csc(N)n3)[C@H]2SC1 (some centres unmarked) [Compound E, 1-(Isopropyloxycarbonyloxy)ethyl 7-[(Z)-2-(2-aminothiazol-4-yl)-2-methoxyiminoacetamido]-3-methoxymethyl-3-cephem-4-carboxylate] |  |  |  |  |  |  |  |  |  |  | MIC [9]: 0.2 µg/mL (≈ 0.359 µM); Intrapulmonary viable cells [10]: 4.26 ± 0.62 log CFU/lung; Eradication rate [10]: 0% |
| C=CC1=C(C(=O)O)N2C(=O)C(NC(=O)/C(=N\O)c3csc(N)n3)[C@H]2SC1 (some centres unmarked) [Compound F, 7-[(Z)-2-(2-aminothiazol-4-yl)-2-hydroxyiminoacetamido]-3-vinyl-3-cephem-4-carboxylic acid] |  |  |  |  |  |  |  |  | 0.8 (≈ 2.02 µM) | 5.16 ± 0.73 | MIC [9]: 0.2 µg/mL (≈ 0.506 µM); Intrapulmonary viable cells [10]: 6.25 ± 0.74 log CFU/lung; Eradication rate [10]: 0% |
| CN(C)C(=O)OCC1=C(C(=O)OCOC(=O)C(C)(C)C)N2C(=O)C(NC(=O)/C(=N\O)c3csc(N)n3)C2SC1 (centres unmarked) [Example 14, Pivaloyloxymethyl 7-[(Z)-2-(2-aminothiazol-4-yl)-2-hydroxyiminoacetamido]-3-N,N-dimethylcarbamoyloxymethyl-3-cephem-4-carboxylate] |  |  |  |  |  |  | 38 | 18.2 |  |  |  |
| CC(C)OC(=O)OC(C)OC(=O)C1=C(COC(=O)N(C)C)CSC2C(NC(=O)/C(=N\O)c3csc(N)n3)C(=O)N12 (centres unmarked) [Example 20, 1-(Isopropyloxycarbonyloxy)ethyl 7-[(Z)-2-(2-aminothiazol-4-yl)-2-hydroxyiminoacetamido]-3-N,N-dimethylcarbamoyloxymethyl-3-cephem-4-carboxylate] |  |  |  |  |  |  | 46 | 22 | 0.1 (≈ 0.166 µM) | 3.51 ± 0.37 | MIC [9]: 0.1 µg/mL (≈ 0.166 µM); Intrapulmonary viable cells [10]: 1.66 ± 1.02 log CFU/lung; Eradication rate [10]: 50% |
| CO/N=C(\C(=O)NC1C(=O)N2C(C(=O)OCOC(=O)C(C)(C)C)=C(COC(=O)N(C)C)CSC12)c1csc(N)n1 (centres unmarked) [Example 24, Pivaloyloxymethyl 7-[(Z)-2-(2-aminothiazol-4-yl)-2-methoxyiminoacetamido]-3-N,N-dimethylcarbamoyloxymethyl-3-cephem-4-carboxylate] |  |  |  |  |  |  | 34 | 20 |  |  |  |
| CC(=O)O/N=C(\C(=O)NC1C(=O)N2C(C(=O)OC(C)OC(=O)OC(C)C)=C(COC(=O)N(C)C)CSC12)c1csc(N)n1 (stereo not drawn) [Example 43, 1-(Isopropoxycarbonyloxy)ethyl 7β-[2-(2-aminothiazol-4-yl)-2-(Z)-acetoxyiminoacetamido]-3-N,N-dimethylcarbamoyloxymethyl-3-cephem-carboxylate] |  |  |  |  |  |  |  |  | 0.2 (≈ 0.311 µM) | 4.86 ± 0.60 |  |
| Benzhydryl 7-formamido-3-N,N-dimethylcarbamoyloxymethyl-3-cephem-4-carboxylate [Example 38] | 0.025 | 0.025 | 0.2 | 0.05 | 0.1 | 0.05 |  |  |  |  |  |

From patent US5587473A, “7-acyl-3-(substituted carbamoyloxy) cephem compounds and process for their preparation” (Eisai Co., Ltd., priority 1990, dated 1996)
